In US20230295087A1, “AGONISTS OF ROR GAMMAt” (BRISTOL-MYERS SQUIBB COMPANY, priority 2019, published 2023):

The compounds below were run against T1, human RORgT (Homo sapiens, UniProt P51449) (assay: RORgT Gal4 Luciferase Reporter Gene Assay). Conditions: engineered Jurkat cells overexpressing RORgT (LBD or full length) fused with Gal4 Luc reporter; 18 hours at 37° C.; luminescence.
T1 construct: expressed in transfected cells
T1 sequence (P51449 267-516): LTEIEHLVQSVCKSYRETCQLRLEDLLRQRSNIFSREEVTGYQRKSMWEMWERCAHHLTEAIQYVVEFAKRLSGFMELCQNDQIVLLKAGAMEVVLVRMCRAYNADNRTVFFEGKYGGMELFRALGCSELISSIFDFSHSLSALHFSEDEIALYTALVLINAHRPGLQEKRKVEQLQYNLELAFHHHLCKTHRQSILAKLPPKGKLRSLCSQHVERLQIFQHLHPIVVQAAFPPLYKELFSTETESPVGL
Format: cell-based
Protocol: RORgT Gal4 Luciferase Reporter Gene Assay
25 µL of cryopreserved Jurkat cells over expressing ligand binding domain (LBD) of RORgT (aa267-516, NM_005060) and Gal4 Luc, or full length of human RORgT and Gal4 Luc, were plated in 384-well solid white cell culture plates (PerkinElmer 6007899), with a density of 10,000 cells/well in RPMI 1640 cell culture media (Gibco 11875-085). The media contained 0.1% BSA, 10 mM HEPES (Gibco 15360-080), […] Sodium Pyruvate (Gibco 11360-040), […] Hygromycin B (Invitrogen 10687-010), and […] Blasticidin (Invitrogen R210-01).
100 nL of compound at varying concentrations in 3-fold serial dilution, with final concentrations ranging from 40 µM to 0.67 nM, were added to the cells using Labcyte Echo 550. The compound and the cells were incubated for 18 hours at 37° C. in a cell culture incubator. Cells were then lysed with 15 uL of Steady-Glo Luciferase Assay reagent (Promega EZ550), followed by centrifuging the assay plates at 1500 RPM for 1 minute. Subsequently, the plates were read on the Envision (PerkinElmer). The inhibition of constitutive activity of RORgT achieved by graded concentrations of compound was calculated as a percentage of the luminescence signal window reduction over a control compound.

Going from `O=C(C1CCS(=O)(=O)CC1)N1CC[C@@]2(S(=O)(=O)c3ccc(F)cc3)c3ccc(Cc4c(F)cccc4Cl)cc3CC[C@@H]12` [Example 32, 4-[(3aR,9bR)-7-[(2-chloro-6-fluorophenyl)methyl]-9b-(4-fluorobenzenesulfonyl)-1H,2H,3H,3aH,4H,5H,9bH-benzo[e]indole-3-carbonyl]-1λ^6-thiane-1,1-dione] to `O=C(C1CCS(=O)(=O)CC1)N1CC[C@@]2(S(=O)(=O)c3ccc(F)cc3)c3ccc(COc4c(F)cccc4Cl)cc3CC[C@@H]12` [Example 33, 4-[(3aR,9bR)-7-[(2-chloro-6-fluorophenoxy)methyl]-9b-(4-fluorobenzenesulfonyl)-1H,2H,3H,3aH,4H,5H,9bH-benzo[e]indole-3-carbonyl]-1λ^6-thiane-1,1-dione], the EC50 rises from 1.8 nM to 10 nM (5.6-fold). The first is the more potent here.

Compared with `O=C(O)[C@H]1CC[C@H](C(=O)N2CC[C@@]3(S(=O)(=O)c4ccc(F)cc4)c4ccc(Cc5ccccc5)cc4CC[C@@H]23)CC1` [Example 34, (1r,4r)-4-[(3aR,9bR)-7-benzyl-9b-(4-fluorobenzenesulfonyl)-1H,2H,3H,3aH,4H,5H,9bH-benzo[e]indole-3-carbonyl]cyclohexane-1-carboxylic acid], `Cc1ccccc1Cc1ccc2c(c1)CC[C@H]1N(C(=O)[C@H]3CC[C@H](C(=O)O)CC3)CC[C@@]21S(=O)(=O)c1ccc(F)cc1` [Example 43, (1r,4r)-4-[(3aR,9bR)-9b-(4-fluorobenzenesulfonyl)-7-[(2-methylphenyl)methyl]-1H,2H,3H,3aH,4H,5H,9bH-benzo[e]indole-3-carbonyl]cyclohexane-1-carboxylic acid] is 3.7-fold lower in EC50: 10 nM for the first, 2.7 nM for the second. The second is the more potent here.

First: O=C(C1CCS(=O)(=O)CC1)N1CC[C@@]2(S(=O)(=O)c3ccc(F)cc3)c3ccc(Oc4ccccc4)cc3CC[C@@H]12 [Example 36]
Second: Cc1ccccc1Oc1ccc2c(c1)CC[C@H]1N(C(=O)C3CCS(=O)(=O)CC3)CC[C@@]21S(=O)(=O)c1ccc(F)cc1 [Example 49, 4-[(3aR,9bR)-9b-(4-fluorobenzenesulfonyl)-7-(2-methylphenoxy)-1H,2H,3H,3aH,4H,5H,9bH-benzo[e]indole-3-carbonyl]-1λ^6-thiane-1,1-dione]
The EC50 of the first is 2.3-fold higher: 4.1 nM for the first, 1.8 nM for the second. The second is the more potent here.

First: O=C(O)[C@H]1CC[C@H](C(=O)N2CC[C@@]3(S(=O)(=O)c4ccc(F)cc4)c4ccc(Oc5c(F)cccc5Cl)cc4CC[C@@H]23)CC1 [Example 37, (1r,4r)-4-[(3aR,9bR)-7-(2-chloro-6-fluorophenoxy)-9b-(4-fluorobenzenesulfonyl)-1H,2H,3H,3aH,4H,5H,9bH-benzo[e]indole-3-carbonyl]cyclohexane-1-carboxylic acid]
Second: O=C(C1CCS(=O)(=O)CC1)N1CC[C@@]2(S(=O)(=O)c3ccc(F)cc3)c3ccc(Oc4c(F)cccc4Cl)cc3CC[C@@H]12 [Example 38, 4-[(3aR,9bR)-7-(2-chloro-6-fluorophenoxy)-9b-(4-fluorobenzenesulfonyl)-1H,2H,3H,3aH,4H,5H,9bH-benzo[e]indole-3-carbonyl]-1λ^6-thiane-1,1-dione]
The EC50 of the first is 3-fold higher: 3.3 nM for the first, 1.1 nM for the second. The second is the more potent here.

Going from `O=C(C1CCS(=O)(=O)CC1)N1CC[C@@]2(S(=O)(=O)c3ccc(F)cc3)c3ccc(Oc4c(F)cccc4C(F)(F)F)cc3CC[C@@H]12` [Example 39, 4-[(3aR,9bR)-7-[2-fluoro-6-(trifluoromethyl)phenoxy]-9b-(4-fluorobenzenesulfonyl)-1H,2H,3H,3aH,4H,5H,9bH-benzo[e]indole-3-carbonyl]-1λ^6-thiane-1,1-dione] to `O=C(C1CCS(=O)(=O)CC1)N1CC[C@@]2(S(=O)(=O)c3ccc(F)cc3)c3ccc(Cc4ccc(F)cc4)cc3CC[C@@H]12` [Example 41, 4-[(3aR,9bR)-9b-(4-fluorobenzenesulfonyl)-7-[(4-fluorophenyl)methyl]-1H,2H,3H,3aH,4H,5H,9bH-benzo[e]indole-3-carbonyl]-1λ^6-thiane-1,1-dione], the EC50 falls from 2.7 nM to 1.2 nM (2.3-fold).

First: O=C(O)[C@H]1CC[C@H](C(=O)N2CC[C@@]3(S(=O)(=O)c4ccc(F)cc4)c4ccc(Cc5ccc(F)cc5)cc4CC[C@@H]23)CC1 [Example 40, (1r,4r)-4-[(3aR,9bR)-9b-(4-fluorobenzenesulfonyl)-7-[(4-fluorophenyl)methyl]-1H,2H,3H,3aH,4H,5H,9bH-benzo[e]indole-3-carbonyl]cyclohexane-1-carboxylic acid]
Second: O=C(C1CCS(=O)(=O)CC1)N1CC[C@@]2(S(=O)(=O)c3ccc(F)cc3)c3ccc(Cc4ccc(Cl)cc4)cc3CC[C@@H]12 [Example 42, 4-[(3aR,9bR)-7-[(4-chlorophenyl)methyl]-9b-(4-fluorobenzenesulfonyl)-1H,2H,3H,3aH,4H,5H,9bH-benzo[e]indole-3-carbonyl]-1λ^6-thiane-1,1-dione]
The EC50 of the first is 2.9-fold higher: 5.2 nM for the first, 1.8 nM for the second. The second is the more potent here.

Compared with `Cc1ccccc1Cc1ccc2c(c1)CC[C@H]1N(C(=O)C3CCS(=O)(=O)CC3)CC[C@@]21S(=O)(=O)c1ccc(F)cc1` [Example 44, 4-[(3aR,9bR)-9b-(4-fluorobenzenesulfonyl)-7-[(2-methylphenyl)methyl]-1H,2H,3H,3aH,4H,5H,9bH-benzo[e]indole-3-carbonyl]-1λ^6-thiane-1,1-dione], `Cc1ccccc1Cc1ccc2c(c1)CC[C@H]1N(C(=O)CC3CCS(=O)(=O)C3)CC[C@@]21S(=O)(=O)c1ccc(F)cc1` (stereo partly drawn) [Example 47, 3-{2-[(3aR,9bR)-9b-(4-fluorobenzenesulfonyl)-7-[(2-methylphenyl)methyl]-1H,2H,3H,3aH,4H,5H,9bH-benzo[e]indol-3-yl]-2-oxoethyl}-1λ^6-thiolane-1,1-dione] is 2.3-fold higher in EC50: 1.9 nM for the first, 4.4 nM for the second.

Compared with `CC1(CN2CC[C@@]3(S(=O)(=O)c4ccc(F)cc4)c4ccc(OCc5c(F)cccc5C(F)(F)F)cc4CC[C@@H]23)CCNCC1` [Example 45, 4-{ [(3aR,9bR)-7-{ [2-fluoro-6-(trifluoromethyl)phenyl]methoxy} -9b-(4-fluorobenzenesulfonyl)-1H,2H,3H,3aH,4H,5H,9bH-benzo[e]indol-3-yl]methyl}-4-methylpiperidine], `CC(=O)N1CCC(C)(CN2CC[C@@]3(S(=O)(=O)c4ccc(F)cc4)c4ccc(OCc5c(F)cccc5C(F)(F)F)cc4CC[C@@H]23)CC1` [Example 52, 1-(4-{[(3aR,9bR)-7-{[2-fluoro-6-(trifluoromethyl)phenyl]methoxy} -9b-(4-fluorobenzenesulfonyl)-1H,2H3H,3aH,4H,5H,9bH-benzo[e]indol-3-yl]methyl}-4-methylpiperidin-1-yl)ethan-1-one] is 13-fold lower in EC50: 306 nM for the first, 24 nM for the second. The second is the more potent here.

Going from `Cc1ccccc1Cc1ccc2c(c1)CC[C@H]1N(C(=O)C3(C)CCS(=O)(=O)CC3)CC[C@@]21S(=O)(=O)c1ccc(F)cc1` [Example 46, 4-[(3aR,9bR)-9b-(4-fluorobenzenesulfonyl)-7-[(2-methylphenyl)methyl]-1H,2H,3H,3aH,4H,5H,9bH-benzo[e]indole-3-carbonyl]-4-methyl-1λ^6-thiane-1,1-dione] to `Cc1ccccc1Oc1ccc2c(c1)CC[C@H]1N(C(=O)C3(C)CCS(=O)(=O)CC3)CC[C@@]21S(=O)(=O)c1ccc(F)cc1` [Example 48, 4-[(3aR,9bR)-9b-(4-fluorobenzenesulfonyl)-7-(2-methylphenoxy)-1H,2H,3H,3aH,4H,5H,9bH-benzo[e]indole-3-carbonyl]-4-methyl-1λ^6-thiane-1,1-dione], the EC50 rises from 2.7 nM to 7.5 nM (2.8-fold).

Going from `Cc1ccccc1Oc1ccc2c(c1)CC[C@H]1N(C(=O)[C@]3(C)CC[C@@H](C(=O)O)CC3)CC[C@@]21S(=O)(=O)c1ccc(F)cc1` [Example 50, (1r,4r)-4-[(3aR,9bR)-9b-(4-fluorobenzenesulfonyl)-7-(2-methylphenoxy)-1H,2H,3H,3aH,4H,5H,9bH-benzo[e]indole-3-carbonyl]-4-methylcyclohexane-1-carboxylic acid] to `CC(C)(C)OC(=O)N1CC[C@@]2(S(=O)(=O)c3ccc(F)cc3)c3ccc(Cc4ccccc4)cc3CC[C@@H]12` [Example 53, ert-butyl (3aR,9bR)-7-benzyl-9b-(4-fluorobenzenesulfonyl)-1H,2H,3H,3aH,4H,5H,9bH-benzo[e]indole-3-carboxylate], the EC50 rises from 6.8 nM to 16 nM (2.4-fold). The first is the more potent here.

Going from `CC(=O)N1CCC(CN2CC[C@@]3(S(=O)(=O)c4ccc(F)cc4)c4ccc(OCc5c(F)cccc5C(F)(F)F)cc4CC[C@@H]23)CC1` [Example 51, 1-(4-{[(3aR,9bR)-7-{[2-fluoro-6-(trifluoromethyl)phenyl]methoxy} -9b-(4-fluorobenzenesulfonyl)-1H,2H,3H,3aH,4H,5H,9bH-benzo[e]indol-3-yl]methyl}piperidin-1-yl)ethan-1-one] to `O=C(O)[C@H]1CC[C@H](C(=O)N2CC[C@@]3(S(=O)(=O)c4ccccc4)c4ccc(OCc5ccccc5)cc4CC[C@@H]23)CC1` [Example 54, (1r,4r)-4-[(3aR,9bR)-9b-(benzenesulfonyl)-7-(benzyloxy)-1H,2H,3H,3aH,4H,5H,9bH-benzo[e]indole-3-carbonyl]cyclohexane-1-carboxylic acid], the EC50 rises from 32 nM to 290 nM (9.1-fold).
